Measured values published in patent US12508280B2, “Formulations for improving gut health” (DSM IP ASSETS B.V., priority 2018, dated 2025).

Assays:
[1] = Broiler feeding trial, cecal 1H-NMR metabolomic analysis; type: in vivo, chickens
Protocol: A total of 63 samples have been provided to the Bio-NMR Group of Department of Agricultural and Food Science and Interdepartmental Centre for Industrial Agri-Food Research (CIRI) of University of Bologna, Italy, including 21 cecal samples, collected from the first time point, 21 from the second time point and 21 from the third time were available.
Preliminary analysis were performed on 63 samples subdivided as follows: control samples (A) fed with 10 mg/kg of Vit. B2, treated samples (B) fed with 50 mg/kg of Vit. B2, treated samples (C) fed with 100 mg/kg of Vit. B2. Samples were prepared for nuclear magnetic resonance (NMR) analysis by vortex mixing for 5 minutes stool with 1 mL of deionized water, followed by centrifugation for 10 minutes at 14,000 rpm and 4° C. About […] of supernatant was added to 100 μL of a D2O 1.5 M phosphate buffer solution containing 0.1% TSP (3-(trimethylsilyl)propionic acid-d4), NaN3 2 mM, set at pH 7.40. Before analysis, samples were centrifuged for 10 minutes again and then 590 uL transferred into an NMR tube.
Proton NMR (^1H-NMR) spectra were recorded at 298 K with an AVANCE III spectrometer (Bruker, Milan, Italy) operating at a frequency of 600.13 MHz. The Hydrogen Deuterium Oxide (HOD) residual signal was suppressed by presaturation, whereas broad signals from slowly tumbling molecules were removed by including a Carr-Purcell-Meiboom-Gill filter27 to a free induction decay sequence. The filter was made up by a train of 400 echoes separated by 800 μs, for a total time of 328 ms. Each spectrum was acquired by summing up 256 transients using 32 K data points over a 7211.54-Hz spectrum (for an acquisition time of 2.27 seconds). The recycle delay was set to 8 seconds, keeping into consideration the longitudinal relaxation time of the protons under investigation. Each spectrum was processed with Top Spin 3.0 (Bruker) by using an automatic command apk0.noe, which performs in one shot the baseline and phase correction and by applying a line-broadening factor of 1 Hz. […]

[2] = tested on: caecum content metagenome; experiment: Broiler feeding trial, cecal metagenomic analysis (KEGG and SEED functional genes); type: in vivo, chickens; conditions: treated groups (B and C) vs control group (A)
Protocol: The DNA are being extracted from each sample of caecum content using a bead-beating procedure. Briefly, 0.25 g of cecal content are suspended in 1 ml lysis buffer (500 mM NaCl, 50 mM Tris-Cl, pH 8.0, 50 mM EDTA, 4% SDS) with MagNA Lyser Green Beads (Roche, Milan, Italy) and homogenized on the MagNA Lyser (Roche) for 25 sec at 6500 rpm. The samples are then heated at 70° C. for 15 min, followed by centrifugation to separate the DNA from the bacterial cellular debris. This process is repeated with a second 300 μl aliquot of lysis buffer. The samples are then subjected to 10 M v/v ammonium acetate (Sigma, Milan, Italy) precipitation, followed by isopropanol (Sigma) precipitation and a 70% ethanol (Carlo Erba, Milan, Italy) wash and re-suspended in 100 ul 1× Tris-EDTA (Sigma). The samples are then treated with DNase-free RNase (Roche) and incubated overnight at 4° C., before being processed through the QIAmp® DNA Stool Mini Kit (Qiagen, Milan, Italy) according to manufacturer's directions with some modifications. Samples are measured on a BioSpectrometer® (Eppendorf, Milan, Italy) to assess DNA quantity and quality. […]
Filtering and trimming of raw reads were performed using MGRast (MR) (mgrast.org) (Keegan et al., 2016) bioinformatics pipelines. […]

Bifidobacterium = experiment: Microbiome composition by shotgun sequencing: Bifidobacterium (first set); type: cell-based, human; conditions: after 24 h fermentation, vs corresponding control
[3] = tested on: fecal suspension from the selected donor; experiment: Gas production in closed colon incubations (first set); type: cell-based, human; conditions: after 48 h fermentation, vs corresponding control
Protocol: The colon incubations were performed in closed incubation systems. This allowed us to evaluate the accumulation of gasses in the headspace, which can be measured with a pressure meter. Gas production is a measure of microbial activity, and thus of the speed of fermentation of the potentially prebiotic substrates. It can be used as an indication for bloating and digestive wellbeing upon prebiotic consumption.
Since ethanol is known to have antimicrobial effects, two blanks for each type of stock solution were included. As a source of the microbial community, a freshly prepared fecal suspension from the selected donor was added to the reactors. […] All tests, except the blanks, were performed in single repetition, resulting in 40 independent incubations, as specified in Table 1. Incubation conditions of the pre-screening experiment and the final experiment were 48 h at 37° C., under shaking (90 rpm) and anaerobic conditions. DNA were extracted from effluent samples collected from each fermentation flask before (0 h fermentation) and after fermentation (24 h fermentation) and use for microbiome composition analysis by Shotgun sequencing. Effluent samples were collected from each fermentation flask before (0 h fermentation) and after fermentation (48 h fermentation), sterilized by filtering through 0.22 μm filters and used for short chain fatty acids (SCFA), quantification of immunological biomarkers and in vitro analysis in cell culture systems.
For both sets of in vitro experiments, colon incubations were performed in closed incubation systems as described above. This allowed to evaluate the accumulation of gasses in the headspace, which can be measured with a pressure meter. Gas production is a measure of microbial activity, and thus of the speed of fermentation of the potentially prebiotic substrates

[4] = tested on: genes involved in Acetyl-CoA fermentation to Butyrate pathway; experiment: Shotgun sequencing functional analysis: butyrate pathway genes (first set); type: cell-based, human; conditions: 0.2× dose; after 24 h fermentation; vs corresponding control

Compound | cecal propionate (1H-NMR integral area) ([1]; groups A, B, C, T0, T1, T2) | cecal butyrate (1H-NMR integral area) ([1]; groups A, B, C, T0, T1, T2 (14, 28, 38/42 days)) | cecal uracil (1H-NMR integral area) ([1]; samples C (100 mg/kg Vit. B2) vs others) | PCA of functional features (6361 features, 63 samples) [2] | Bifidobacterium relative abundance (Bifidobacterium; 0.2× dose) | Bifidobacterium relative abundance (Bifidobacterium; 1× dose) | Bifidobacterium relative abundance (Bifidobacterium; 5× dose) | gas production ([3]; 1× dose) | gas production ([3]; 5× dose) | relative abundance of genes involved in Acetyl-CoA fermentation to Butyrate pathway [4]
Cc1cc2nc3c(=O)[nH]c(=O)nc-3n(C[C@H](O)[C@H](O)[C@H](O)CO)c2cc1C [Vitamin B2, riboflavin] | A tendency to increase | not affected by both treatment and time | always higher than the others | clear visible separation |  |  |  |  |  | 
Vitamin E |  |  |  |  | increase Bifidobacterium relative abundance | increase Bifidobacterium relative abundance | increase Bifidobacterium relative abundance | reduced gas production | reduced gas production | increase relative abundance
